Experiments:
[1] = cited from earlier work
[2] = tested on: Acne Vulgaris inflammatory lesion
Description: (§1) An Acne Vulgaris (FIGS. 1a, 1b and 1c) inflammatory lesion on the right cheek of a subject was treated by AIF trihydrate at 0.5% concentration dissolved in water only. The subject applied each 3-4 h the solution as a spray. Pictures were performed in a room with artificial constant light by a Sony Mavica FD95 digital camera at a resolution of 1600×1200 pixels.
(§2) Area of inflammation was measured by image analysis techniques as follows:
(§3) Pictures (FIGS. 1a, 1b and 1c) were saved as a BMP file and loaded into Scion Imaging software v. 4.02 (NIH, USA). All three pictures were concomitantly analyzed on the same frame. First, pictures in gray scale were smoothed, manually thresholded, turned into a binary picture and the results transformed to an outline filter. The area of each outlined papule was measured by the software (n=3) and data was further plotted and statistically analyzed by student's t-test in FIG. 2 (Sigmaplot, Jandel, Java).

[3] = tested on: Folliculitis inflammatory lesion
Description: as §1, with “A Folliculitis” for “An Acne Vulgaris”, “3a, 3b” for “1a, 1b”, “3c)” for “1c)”, “left posterior thigh […]” for “right cheek”
as §2
as §3, with “(FIGS. 3a, 3b” for “(FIGS. 1a, 1b”, “and 3c)” for “and 1c)”, “FIG. 4” for “FIG. 2”

[4] = 0.5% in water only, spray each 3-4 h, right cheek, subject, FIGS. 1a-1c
[5] = 0.5% in water only, spray each 3-4 h, left posterior thigh, subject, FIGS. 3a-3c

## CC1=C(/C=C/C(C)=C/C=C/C(C)=C\C(=O)O)C(C)(C)CCC1 [isotretinoin]
[1]; oral, Strauss J S et al, J Am Acad Dermatol, 2001
  incidence of severe side effects: 35%
[1]; systemic retinoid
  side effect: dryness: 100%
  side effect: hair loss: 30%
  side effect: liver function disorder: 5%
  side effect: musculo-skeletal pains: 15%
  side effect: photosensitivity: 90%

## Aluminum fluoride [AIF trihydrate]
[2]; [4]
  final resolution of the papule, time: 26 h
  rapid fading of the papule, time from start of treatment: 14 h
[2]; FIG. 2, n=3 area measurements, p<0.01 at 14 h and at 26 h
  heals the inflamed papule within (area of lesion, image analysis): about 24 h
[3]; [5]
  final resolution of the papule, time: 18 h
  rapid fading of the papule, time from start of treatment: 10 h
[3]; FIG. 4, n=3 area measurements, p<0.01 at 10 h and p<0.001 at 18 h
  heals the inflamed papule within (area of lesion, image analysis): about 18 h
